Source: ChEMBL document CHEMBL5316364, “Genipin Analogue (G300) Inhibits Adipogenic Differentiation of Human Bone Marrow-Derived Mesenchymal Stem Cells through the Suppression of Adipogenic Promoting Factors” (J Nat Prod, 2023)
Active and inactive are the calls of the source. The calls are words filed in the database; no cut-off is given here.

Legend:
3T3-L1 = experiment: Anti-adipogenic activity in mouse 3T3-L1 preadipocytes assessed as decrease in adipocyte numbers at 20 uM measured after 7 days by Oil Red O staining based inverted phase contrast microscopic analysis; format: functional, cell-based; conditions: time 7.0 day
Mesenchymal stem cells [1] = experiment: Cytotoxicity against human bone marrow derived Mesenchymal stem cells assessed as reduction in cell viability at 1 to 20 uM incubated for 1 to 10 days by MTT assay; format: toxicity, cell-based; conditions: dose lower 1 µM, time lower 1 day, dose upper 20 µM, time upper 10 day
Mesenchymal stem cells [2] = experiment: Anti-adipogenic activity in human bone marrow derived Mesenchymal stem cells assessed as reduction in adipocyte count at 5 to 20 uM after 21 days by Oil Red O staining based inverted phase contrast microscopic analysis; format: functional, cell-based; conditions: dose 5-20 µM, time 21.0 day
Mesenchymal stem cells [3] = experiment: Inhibition of lipid droplet accumulation in human bone marrow derived Mesenchymal stem cells at 10 to 20 uM by Oil red o staining based microplate reader analysis; format: functional, cell-based; conditions: dose 10-20 µM
Mesenchymal stem cells [4] = experiment: Inhibition of lipid droplet accumulation in human bone marrow derived Mesenchymal stem cells at 5 to 20 uM incubated for 21 days by Oil red o staining based microplate reader analysis; format: functional, cell-based; conditions: dose 5-20 µM, time 21.0 day
Mesenchymal stem cells [5] = experiment: Anti-adipogenic activity against human bone marrow derived Mesenchymal stem cells assessed as downregulation of PPARG mRNA expression at 20 uM measured after 7 days by qRT-PCR analysis; format: functional, cell-based; conditions: time 7.0 day
Mesenchymal stem cells [6] = experiment: Anti-adipogenic activity against human bone marrow derived Mesenchymal stem cells assessed as downregulation of C/EBPalpha mRNA expression at 20 uM measured after 7 days by qRT-PCR analysis; format: functional, cell-based; conditions: time 7.0 day
Mesenchymal stem cells [7] = experiment: Anti-adipogenic activity against human bone marrow derived Mesenchymal stem cells assessed as downregulation of C/EBPbeta mRNA expression at 20 uM measured after 7 days by qRT-PCR analysis; format: functional, cell-based; conditions: time 7.0 day
Mesenchymal stem cells [8] = experiment: Anti-adipogenic activity against human bone marrow derived Mesenchymal stem cells assessed as downregulation of SREBP-1c mRNA expression at 20 uM measured after 7 days by qRT-PCR analysis; format: functional, cell-based; conditions: time 7.0 day
Mesenchymal stem cells [9] = experiment: Anti-adipogenic activity in human derived bone marrow derived Mesenchymal stem cells assessed as reduction in PPARgamma expression at 20 uM measured after 7 days by Western blot analysis; format: functional, cell-based; conditions: time 7.0 day
Mesenchymal stem cells [10] = experiment: Anti-adipogenic activity in human derived bone marrow derived Mesenchymal stem cells assessed as downregulation of C/EBPalpha protein expression at 20 uM measured after 7 days by western blot analysis; format: functional, cell-based; conditions: time 7.0 day
Mesenchymal stem cells [11] = experiment: Anti-adipogenic activity in human derived bone marrow mesenchymal cells assessed as downregulation of FABP4 mRNA expression at 10 to 20 uM measured on day 21 by qRT-PCR analysis; format: functional, cell-based; conditions: dose 10-20 µM, time 21.0 day
Mesenchymal stem cells [12] = experiment: Anti-adipogenic activity in human derived bone marrow mesenchymal cells assessed as downregulation of LPL mRNA expression at 10 to 20 uM measured on day 21 by qRT-PCR analysis; format: functional, cell-based; conditions: dose 10-20 µM, time 21.0 day
Mesenchymal stem cells [13] = experiment: Anti-adipogenic activity in human derived bone marrow mesenchymal cells assessed as downregulation of GLUT4 mRNA expression at 10 to 20 uM measured on day 21 by qRT-PCR analysis; format: functional, cell-based; conditions: dose 10-20 µM, time 21.0 day
Mesenchymal stem cells [14] = experiment: Anti-adipogenic activity in human derived bone marrow mesenchymal stem cells assessed as reduction in adiponectin release measured after 21 days by flow cytometry analysis; format: functional, cell-based; conditions: time 21.0 day
Mesenchymal stem cells [15] = experiment: Anti-adipogenic activity in human derived bone marrow mesenchymal stem cells assessed as reduction in […] release measured after 21 days by flow cytometry analysis; format: functional, cell-based; conditions: time 21.0 day
Mesenchymal stem cells [16] = experiment: Anti-adipogenic activity in human derived bone marrow mesenchymal stem cells assessed as reduction in adipsin release measured after 21 days by flow cytometry analysis; format: functional, cell-based; conditions: time 21.0 day
Mesenchymal stem cells [17] = experiment: Anti-adipogenic activity in human derived bone marrow mesenchymal stem cells assessed as glycerol release at 5 uM incubated for 12 hrs by colorimetric analysis relative to control; format: functional
Mesenchymal stem cells [18] = experiment: Anti-adipogenic activity in human derived bone marrow mesenchymal stem cells assessed as glycerol release at 10 uM incubated for 12 hrs by colorimetric analysis relative to control; format: functional
Mesenchymal stem cells [19] = experiment: Anti-adipogenic activity in human derived bone marrow mesenchymal stem cells assessed as glycerol release at 20 uM incubated for 12 hrs by colorimetric analysis relative to control; format: functional
Mesenchymal stem cells [20] = experiment: Antidiabetic activity in human bone marrow mesenchymal stem cells assessed as glucose uptake by measuring 2-DG6P level at 15 to 20 uM by glucose uptake assay; format: functional, cell-based; conditions: dose 15-20 µM
Mesenchymal stem cells [21] = experiment: Upregulation of adiponectin level in human bone marrow derived mesenchymal stem cells at 5 to 20 uM measured after 48 hrs by flow cytometric analysis; format: functional, cell-based; conditions: dose 5-20 µM
Mesenchymal stem cells [22] = experiment: Upregulation of adipsin level in human bone marrow derived mesenchymal stem cells at 5 to 20 uM measured after 48 hrs by flow cytometric analysis; format: functional, cell-based; conditions: dose 5-20 µM
Mesenchymal stem cells [23] = experiment: Downregulation of RBP4 level in human bone marrow derived mesenchymal stem cells at 5 to 20 uM measured after 48 hrs by flow cytometric analysis; format: functional, cell-based; conditions: dose 5-20 µM
Mesenchymal stem cells [24] = experiment: Downregulation of IL6 level in human bone marrow derived mesenchymal stem cells at 5 to 20 uM measured after 48 hrs by flow cytometric analysis; format: functional, cell-based; conditions: dose 5-20 µM
Mesenchymal stem cells [25] = experiment: Downregulation of IL8 level in human bone marrow derived mesenchymal stem cells at 5 to 20 uM measured after 48 hrs by flow cytometric analysis; format: functional, cell-based; conditions: dose 5-20 µM
Mesenchymal stem cells [26] = experiment: Downregulation of MCP-1 level in human bone marrow derived mesenchymal stem cells at 5 to 20 uM measured after 48 hrs by flow cytometric analysis; format: functional, cell-based; conditions: dose 5-20 µM

For `COC(=O)C1=CO[C@@H](OC)[C@@H]2C(Cn3cc(CCBr)nn3)=CC[C@H]12`, the Activity (3T3-L1) was “Active”.

With `CCCCCCCCCCCCCCCCCCOCc1cn(CC2=CC[C@@H]3C(C(=O)OC)=CO[C@@H](OC)[C@H]23)nn1` the Activity (3T3-L1) was “Active”.

`COC(=O)C1=CO[C@@H](O)[C@@H]2C(CO)=CC[C@H]12` was tested, and the Activity (3T3-L1) was “Active”.

With `COC(=O)C1=CO[C@@H](OC)[C@@H]2C(Cn3cc(COCc4ccccc4)nn3)=CC[C@H]12` the Activity (3T3-L1) was “Active”.

In the case of `COC(=O)C1=CO[C@@H](OC)[C@@H]2C(Cn3cc(COCCc4ccccc4)nn3)=CC[C@H]12`, the Activity (3T3-L1) is reported as “Active”.

For `COC(=O)C1=CO[C@@H](OC)[C@@H]2C(Cn3cc(COCc4ccc(OC)c(OC)c4)nn3)=CC[C@H]12`, the Activity (3T3-L1) was “Active”.

`COC(=O)C1=CO[C@@H](OC)[C@@H]2C(Cn3cc(COc4cc(C=O)ccc4OC)nn3)=CC[C@H]12` was tested, and the Activity (3T3-L1) was “Active”.

For `COC(=O)C1=CO[C@@H](OC)[C@@H]2C(Cn3cc(CCCOC(c4ccccc4)(c4ccccc4)c4ccccc4)nn3)=CC[C@H]12`, the Activity (3T3-L1) was “Active”, the Activity (Mesenchymal stem cells [1]) was “Non-Toxic” and the Activity (Mesenchymal stem cells [2]) was “Active”. For the same compound, the inhibition (Mesenchymal stem cells [3]) was “Active”, the inhibition (Mesenchymal stem cells [4]) was “Active” and the Activity (Mesenchymal stem cells [5]) was “Active”. For the same compound, the Activity (Mesenchymal stem cells [6]) was “Active”, the Activity (Mesenchymal stem cells [7]) was “Active” and the Activity (Mesenchymal stem cells [8]) was “Active”. For the same compound, the Activity (Mesenchymal stem cells [9]) was “Active”, the Activity (Mesenchymal stem cells [10]) was “Active” and the Activity (Mesenchymal stem cells [11]) was “Active”. The Activity (Mesenchymal stem cells [12]) was “Active”, the Activity (Mesenchymal stem cells [13]) was “Active” and the Activity (Mesenchymal stem cells [14]) was “Active”. The Activity (Mesenchymal stem cells [15]) was “Active”, the Activity (Mesenchymal stem cells [16]) was “Active” and the Activity (Mesenchymal stem cells [17]) was 17%. For the same compound, the Activity (Mesenchymal stem cells [18]) was 25%, the Activity (Mesenchymal stem cells [19]) was 33% and the Activity (Mesenchymal stem cells [20]) was “Active”. For the same compound, the Activity (Mesenchymal stem cells [21]) was “Active”, the Activity (Mesenchymal stem cells [22]) was “Active” and the Activity (Mesenchymal stem cells [23]) was “Active”. For the same compound, the Activity (Mesenchymal stem cells [24]) was “Active”, the Activity (Mesenchymal stem cells [25]) was “Active” and the Activity (Mesenchymal stem cells [26]) was “Active”.

In the case of `COC(=O)C1=CO[C@@H](OC)[C@@H]2C(Cn3cc(C4(O)CCCCC4)nn3)=CC[C@H]12`, the Activity (3T3-L1) is reported as “Active”.

For `COC(=O)C1=CO[C@@H](OC)[C@@H]2C(Cn3cc(-c4ccccc4)nn3)=CC[C@H]12`, the Activity (3T3-L1) was “Active”.

With `COC(=O)C1=CO[C@@H](OC)[C@@H]2C(Cn3cc(C(O)(c4ccccc4)c4ccccc4)nn3)=CC[C@H]12` the Activity (3T3-L1) was “Active”.

In the case of `COC(=O)C1=CO[C@@H](OC)[C@@H]2C(Cn3cc(COCc4cc(OC)ccc4OC)nn3)=CC[C@H]12`, the Activity (3T3-L1) is reported as “Active”.

With `COC(=O)C1=CO[C@@H](OC)[C@@H]2C(Cn3cc(COc4ccc5ccc(=O)oc5c4)nn3)=CC[C@H]12` the Activity (3T3-L1) was “Active”.
